In patent US20250352668A1, “AAV VECTOR ENCODING DIAMINE OXIDASE AND USES THEREOF” (OYSTER POINT PHARMA, INC., priority 2022, published 2025):

Experiments:
[1] = biological target: T1, nAChR subtype alpha7 (Homo sapiens, UniProt P36544); conditions: cited from earlier work
T1 construct: expressed in transfected cells

[2] = biological target: T2, nAChR subtype alpha3beta2 (Homo sapiens, UniProt P17787+P32297); conditions: cited from earlier work
T2 construct: expressed in transfected cells

[3] = biological target: T3, nAChR subtype alpha4alpha6beta2 (Homo sapiens, UniProt P17787+P43681+Q15825); conditions: cited from earlier work
T3 construct: expressed in transfected cells
T3 sequence (P43681 29-627 limits assumed): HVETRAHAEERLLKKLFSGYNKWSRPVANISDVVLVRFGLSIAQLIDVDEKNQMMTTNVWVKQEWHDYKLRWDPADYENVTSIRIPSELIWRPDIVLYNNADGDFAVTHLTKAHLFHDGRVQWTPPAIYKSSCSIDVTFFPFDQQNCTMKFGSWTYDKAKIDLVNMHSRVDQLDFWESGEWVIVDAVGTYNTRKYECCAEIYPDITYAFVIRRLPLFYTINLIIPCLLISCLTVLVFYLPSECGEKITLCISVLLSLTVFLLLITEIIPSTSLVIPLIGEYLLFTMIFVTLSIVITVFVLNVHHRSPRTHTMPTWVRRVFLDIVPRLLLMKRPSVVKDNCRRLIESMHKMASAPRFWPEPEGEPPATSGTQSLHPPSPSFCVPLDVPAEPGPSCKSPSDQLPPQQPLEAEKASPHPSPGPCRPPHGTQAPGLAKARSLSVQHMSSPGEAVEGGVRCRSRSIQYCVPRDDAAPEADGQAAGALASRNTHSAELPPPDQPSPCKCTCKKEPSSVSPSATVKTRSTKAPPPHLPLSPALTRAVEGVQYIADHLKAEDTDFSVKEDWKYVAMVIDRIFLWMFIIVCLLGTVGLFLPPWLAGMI
T3 sequence (Q15825 26-494): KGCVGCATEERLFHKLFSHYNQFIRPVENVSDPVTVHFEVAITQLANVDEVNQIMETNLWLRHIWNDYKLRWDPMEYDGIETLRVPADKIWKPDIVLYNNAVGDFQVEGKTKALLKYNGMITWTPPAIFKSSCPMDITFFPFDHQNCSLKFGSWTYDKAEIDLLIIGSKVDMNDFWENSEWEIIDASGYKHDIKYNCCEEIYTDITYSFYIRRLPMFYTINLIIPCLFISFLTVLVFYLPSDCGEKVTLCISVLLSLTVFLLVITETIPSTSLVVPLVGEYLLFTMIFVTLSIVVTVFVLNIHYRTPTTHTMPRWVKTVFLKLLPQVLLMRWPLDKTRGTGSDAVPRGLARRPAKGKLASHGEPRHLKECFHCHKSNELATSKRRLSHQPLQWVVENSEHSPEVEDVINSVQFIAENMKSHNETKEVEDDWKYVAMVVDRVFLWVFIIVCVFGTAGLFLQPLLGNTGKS
T3 sequence (P17787 26-502): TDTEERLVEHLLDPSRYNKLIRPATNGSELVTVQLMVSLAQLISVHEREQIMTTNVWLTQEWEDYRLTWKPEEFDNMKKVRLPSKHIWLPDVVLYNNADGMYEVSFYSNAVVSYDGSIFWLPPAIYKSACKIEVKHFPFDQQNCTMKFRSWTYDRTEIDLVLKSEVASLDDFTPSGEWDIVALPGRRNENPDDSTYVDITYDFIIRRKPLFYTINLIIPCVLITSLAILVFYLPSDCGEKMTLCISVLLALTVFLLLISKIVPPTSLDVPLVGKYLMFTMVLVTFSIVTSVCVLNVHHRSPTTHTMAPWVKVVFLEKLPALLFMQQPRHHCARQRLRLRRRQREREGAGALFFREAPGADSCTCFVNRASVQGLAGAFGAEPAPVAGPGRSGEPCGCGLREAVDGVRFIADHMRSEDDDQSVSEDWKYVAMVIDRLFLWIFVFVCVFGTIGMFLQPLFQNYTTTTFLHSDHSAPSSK

[4] = biological target: T4, nAChR subtype alpha4beta2 (Homo sapiens, UniProt P17787+P43681); conditions: cited from earlier work
T4 construct: expressed in transfected cells
T4 sequence (P43681 29-627 limits assumed): as the sequence (P43681 29-627 limits assumed) above
T4 sequence (P17787 26-502): as the sequence (P17787 26-502) above

[5] = biological target: T5, nAChR subtype alpha3alpha5beta4 (Homo sapiens, UniProt P30926+P32297); conditions: cited from earlier work
T5 construct: expressed in transfected cells
T5 sequence (P32297 32-505): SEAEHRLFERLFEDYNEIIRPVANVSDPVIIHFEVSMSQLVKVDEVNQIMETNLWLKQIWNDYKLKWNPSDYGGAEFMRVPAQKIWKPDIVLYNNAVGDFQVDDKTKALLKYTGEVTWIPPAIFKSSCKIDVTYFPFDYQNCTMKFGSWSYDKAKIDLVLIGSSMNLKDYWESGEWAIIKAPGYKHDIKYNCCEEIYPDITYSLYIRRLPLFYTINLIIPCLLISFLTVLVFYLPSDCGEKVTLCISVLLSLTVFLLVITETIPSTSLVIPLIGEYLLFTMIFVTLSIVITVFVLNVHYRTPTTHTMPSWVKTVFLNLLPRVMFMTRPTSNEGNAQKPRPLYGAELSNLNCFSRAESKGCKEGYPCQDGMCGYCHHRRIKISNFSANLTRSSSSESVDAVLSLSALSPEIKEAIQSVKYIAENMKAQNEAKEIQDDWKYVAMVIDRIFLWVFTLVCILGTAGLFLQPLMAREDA
T5 sequence (P30532 23-468 partner): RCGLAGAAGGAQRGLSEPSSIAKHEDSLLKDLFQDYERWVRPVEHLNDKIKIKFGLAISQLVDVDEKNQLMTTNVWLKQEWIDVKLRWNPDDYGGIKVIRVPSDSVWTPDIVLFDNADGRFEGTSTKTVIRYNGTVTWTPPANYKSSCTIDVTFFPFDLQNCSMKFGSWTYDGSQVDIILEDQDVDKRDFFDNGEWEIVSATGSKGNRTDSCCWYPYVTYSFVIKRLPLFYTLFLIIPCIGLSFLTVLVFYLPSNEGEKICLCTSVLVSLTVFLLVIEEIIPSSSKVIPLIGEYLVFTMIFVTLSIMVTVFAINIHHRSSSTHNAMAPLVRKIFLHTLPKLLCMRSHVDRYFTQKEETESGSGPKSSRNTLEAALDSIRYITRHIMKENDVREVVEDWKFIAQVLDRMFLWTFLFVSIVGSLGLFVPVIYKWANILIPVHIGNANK
T5 sequence (P30926 22-498): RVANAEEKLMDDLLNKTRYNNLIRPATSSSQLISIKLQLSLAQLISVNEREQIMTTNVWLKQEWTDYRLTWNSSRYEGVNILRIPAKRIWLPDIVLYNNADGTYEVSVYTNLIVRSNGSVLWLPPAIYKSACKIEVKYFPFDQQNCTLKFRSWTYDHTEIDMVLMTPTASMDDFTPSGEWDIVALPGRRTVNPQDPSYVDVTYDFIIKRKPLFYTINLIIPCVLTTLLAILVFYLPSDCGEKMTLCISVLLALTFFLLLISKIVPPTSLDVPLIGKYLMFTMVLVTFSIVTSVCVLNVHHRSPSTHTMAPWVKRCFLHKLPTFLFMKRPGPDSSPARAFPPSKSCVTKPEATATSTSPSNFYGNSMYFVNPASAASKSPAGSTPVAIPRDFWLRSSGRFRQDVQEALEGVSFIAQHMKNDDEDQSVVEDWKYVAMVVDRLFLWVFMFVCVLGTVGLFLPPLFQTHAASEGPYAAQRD

[6] = biological target: T6, nAChR subtype alpha3beta4 (Homo sapiens, UniProt P30926+P32297); conditions: cited from earlier work
T6 construct: expressed in transfected cells
T6 sequence (P32297 32-505): as the sequence (P32297 32-505) above
T6 sequence (P30926 22-498): as the sequence (P30926 22-498) above

[7] = biological target: T7, nAChR subtype alpha6beta2 (Homo sapiens, UniProt P17787+Q15825); conditions: cited from earlier work
T7 construct: expressed in transfected cells
T7 sequence (Q15825 26-494): as the sequence (Q15825 26-494) above
T7 sequence (P17787 26-502): as the sequence (P17787 26-502) above

[8] = biological target: T1, nAChR subtype alpha7; assay: nAChR agonist response (ACh-normalised evoked current), subtype alpha7; type: cell-based; conditions: 300 micromolar concentration
Description: In general, a nAChR agonist is a full agonist if it evokes a response upon binding to a given receptor that is equal or greater to that of ACh.
nAChR agonist response, from which receptor activation can be determined can, for example, be generated using an appropriate cell-based assay. Cells designed to express a particular nAChR receptor subtype and generate an electrical current response when bound to and activated by a nAChR agonist can be used to characterize the agonist profile of a compound and the amount of receptor activation thus determined. An example of a generic protocol is described below.
Cells that express a particular human nAChR subtype are first exposed to ACh. ACh binds and activates the receptor, thereby evoking a current. The concentration of the ACh is chosen to elicit the maximum response of the receptor (e.g., 1280 micromolar ACh). This current is recorded as the ACh response and serves as the 100% nAChR agonist response and to which responses to other nAChR agonists are compared. […]
The current evoked by exposure to the nAChR agonist is measured and recorded for each nAChR concentration. […] The nAChR agonist response is then calculated as a percentage of the ACh response.
A nAChR agonist evoking a response equal to or greater than the maximum ACh response determined at the same receptor type is a full agonist. […]

T1 sequence (P36544 23-502): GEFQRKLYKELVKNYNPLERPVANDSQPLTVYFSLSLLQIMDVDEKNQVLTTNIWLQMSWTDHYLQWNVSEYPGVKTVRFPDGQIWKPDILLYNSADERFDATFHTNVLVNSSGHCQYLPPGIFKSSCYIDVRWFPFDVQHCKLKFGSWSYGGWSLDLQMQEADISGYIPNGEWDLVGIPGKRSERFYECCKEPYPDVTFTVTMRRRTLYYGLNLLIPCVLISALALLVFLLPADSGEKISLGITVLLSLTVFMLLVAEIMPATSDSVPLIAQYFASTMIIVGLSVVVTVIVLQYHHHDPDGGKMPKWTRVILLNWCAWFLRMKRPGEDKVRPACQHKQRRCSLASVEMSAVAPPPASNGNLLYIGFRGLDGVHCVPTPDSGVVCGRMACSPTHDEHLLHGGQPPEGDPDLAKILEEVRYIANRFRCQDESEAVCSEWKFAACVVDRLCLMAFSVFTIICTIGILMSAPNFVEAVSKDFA
T2 sequence (P32297 32-505): as the sequence (P32297 32-505) above
T2 sequence (P17787 26-502): as the sequence (P17787 26-502) above

Structure (SMILES) | agonist characterisation at nAChR subtype alpha7 [1] | agonist characterisation at nAChR subtype alpha3beta2 [2] | agonist characterisation at nAChR subtype alpha4alpha6beta2 [3] | agonist characterisation at nAChR subtype alpha4beta2 [4] | agonist characterisation at nAChR subtype alpha3alpha5beta4 [5] | agonist characterisation at nAChR subtype alpha3beta4 [6] | agonist characterisation at nAChR subtype alpha6beta2 [7] | evoked current as % of the maximal ACh-evoked current [8]
C(=C\[C@H]1CCNC1)/c1cncnc1 [Compound 1, (R)-5-((E)-2-pyrrolidin-3-ylvinyl)pyrimidine] | weak partial agonist | partial agonist | full agonist | full agonist | full agonist | full agonist |  | 
O=C(O)C(O)C(O)C(=O)O.c1cnc2cc3c(cc2n1)C1CNCC3C1 [Varenicline] | full agonist |  | partial agonist | partial agonist | partial agonist | partial agonist | partial agonist | 
C(=C\[C@H]1CCNC1)/c1cncnc1.O=C(O)CC(O)(CC(=O)O)C(=O)O [compound 1 citrate, (R)-5-((E)-2-pyrrolidin-3-ylvinyl)pyrimidine mono-citrate] |  |  |  |  |  |  |  | 25%
